# Data: patent publication US9499823B2, “Constructs expressing chimeric receptors and use thereof for the controlled activation of defence response to pathogens in plants” (priority 2009, dated 2016)
# Entries after “also recorded” stand apart in the source; their conditions may differ.
# B1: WEG: chimeric receptor: WAK1 ectodomain fused to the TM-iJM-kinase portion of EFR, GFP-fused (protein)
# chain: QHQPGENCQNKCGNITIEYPFGISSGCYYPGNESFSITCKEDRPHVLSDIEVANFNHSGQLQVLLNRSSTCYDEQGKKTEEDSSFTLENLSLSANNKLTAVGCNALSLLDTFGMQNYSTACLSLCDSPPEADGECNGRGCCRVDVSAPLDSYTFETTSGRIKHMTSFHDFSPCTYAFLVEDDKFNFSSTEDLLNLRNVMRFPVLLDWSVGNQTCEQVGSTSICGGNSTCLDSTPRNGYICRCNEGFDGNPYLSAGCQDVNECTTSSTIHRHNCSDPKTCRNKVGGFYCKCQSGYRLDTTTMSCKRKEVVSGICIGIASLLLIIIVASLCWFMKRKKKNNASDGNPSDSTTLGMFHEKVSYEELHSATSRFSSTNLIGSGNFGNVFKGLLGPENKLVAVKVLNLLKHGATKSFMAECETFKGIRHRNLVKLITVCSSLDSEGNDFRALVYEFMPKGSLDMWLQLEDLERVNDHSRSLTPAEKLNIAIDVASALEYLHVHCHDPVAHCDIKPSNILLDDDLTAHVSDFGLAQLLYKYDRESFLNQFSSAGVRGTIGYAAPEYGMGGQPSIQGDVYSFGILLLEMFSGKKPTDESFAGDYNLHSYTKSILSGCTSSGGSNAIDEGLRLVLQVGIKCSEEYPRDRMRTDEAVRELISIRSKFFSSKTTITESPRDAPQSSPQEWMLNTDMHTM
# modifications: left off: large carriers
# B2: EFR: Arabidopsis LRR receptor kinase Elongation Factor Tu Receptor (AT5G20480); GFP-fused control (protein)
# chain: RFSNETDMQALLEFKSQVSENNKREVLASWNHSSPFCNWIGVTCGRRRERVISLNLGGFKLTGVISPSIGNLSFLRLLNLADNSFGSTIPQKVGRLFRLQYLNMSYNLLEGRIPSSLSNCSRLSTVDLSSNHLGHGVPSELGSLSKLAILDLSKNNLTGNFPASLGNLTSLQKLDFAYNQMRGEIPDEVARLTQMVFFQIALNSFSGGFPPALYNISSLESLSLADNSFSGNLRADFGYLLPNLRRLLLGTNQFTGAIPKTLANISSLERFDISSNYLSGSIPLSFGKLRNLWWLGIRNNSLGNNSSSGLEFIGAVANCTQLEYLDVGYNRLGGELPASIANLSTTLTSLFLGQNLISGTIPHDIGNLVSLQELSLETNMLSGELPVSFGKLLNLQVVDLYSNAISGEIPSYFGNMTRLQKLHLNSNSFHGRIPQSLGRCRYLLDLWMDTNRLNGTIPQEILQIPSLAYIDLSNNFLTGHFPEEVGKLELLVGLGASYNKLSGKMPQAIGGCLSMEFLFMQGNSFDGAIPDISRLVSLKNVDFSNNNLSGRIPRYLASLPSLRNLNLSMNKFEGRVPTTGVFRNATAVSVFGNTNICGGVREMQLKPCIVQASPRKRKPLSVRKKVVSGICIGIASLLLIIIVASLCWFMKRKKKNNASDGNPSDSTTLGMFHEKVSYEELHSATSRFSSTNLIGSGNFGNVFKGLLGPENKLVAVKVLNLLKHGATKSFMAECETFKGIRHRNLVKLITVCSSLDSEGNDFRALVYEFMPKGSLDMWLQLEDLERVNDHSRSLTPAEKLNIAIDVASALEYLHVHCHDPVAHCDIKPSNILLDDDLTAHVSDFGLAQLLYKYDRESFLNQFSSAGVRGTIGYAAPEYGMGGQPSIQGDVYSFGILLLEMFSGKKPTDESFAGDYNLHSYTKSILSGCTSSGGSNAIDEGLRLVLQVGIKCSEEYPRDRMRTDEAVRELISIRSKFFSSKTTITESPRDAPQSSPQEWMLNTDMHTM
# Key:
# [1] = system: transgenic Arabidopsis Ws-0 seedlings; assay: Seedling growth inhibition by flg22 in transgenic Ws-0; assay type: in vivo, Arabidopsis thaliana; conditions: data not shown
# Text: (§1) Fluorescent eJMC and FLS2 were also stably expressed in transgenic Arabidopsis ecotype Wassilewskija (Ws-0), which carries EFR but lacks a flg22 perception system (Gomez-Gomez et al., 1999, Bauer et al., 2001). Transformed T1 plants expressing the proteins, named eJMC plants and FLS2 plants, respectively, were selected by confocal microscopy analysis of adult rosette leaves. […] Fluorescence was detected only in adult rosette leaves, likely due to a low expression level of the receptor at the different developmental stages.
# [2] = system: Pseudomonas syringae DC3000; assay: Pseudomonas DC3000 infection of Arabidopsis Ws-0 plants by spraying; assay type: in vivo; conditions: transgenic Ws-0 plants vs Ws-0 wild type, 4 days post infection
# Text: C) Pseudomonas DC3000 infections. (Left Panel) Symptoms disease of wild type and transformed plants after 4 days post infection. (Right panel) Growth of Pseudomonas syringae DC3000 after 4 day post infection. ***, p<0.005.
# The authors therefore infected A. thaliana plants by spraying Pst DC3000 bacteria onto leaf surfaces. […] Higher resistance of eJMC plants, compared to Ws-0 wild-type plants, was found in all of three independent experiments.
# [3] = system: Arabidopsis ecotype Wassilewskija (Ws-0) leaves; assay: H2O2 accumulation (DAB staining) and callose deposition (aniline blue) in stably transformed Arabidopsis Ws-0; assay type: cell-based, Arabidopsis thaliana; conditions: flg22 1 μM, 1 h, stably transformed Ws-0 plants
# Protocol: A) Histochemical analysis of defense responses upon 1 h of treatment with H2O, flg22 (1 μM) or elfl8 (10 μM).
# 3,3′-diaminobenzidine (DAB) staining, callose deposition and gene resistance analysis were assayed as described (Galletti et al., 2008). For measuring active oxygen species released by tobacco agroinfiltrated plants after elicitor treatment, the authors used a modified luminol-dependent assay (Gomez et al., 1999). Slices, corresponding to approximately 30 mg fresh weight, were transferred to assay tubes containing 1 μM flg22 or 10 μM elfl8 in aqueous solution supplied with 40 μM luminol (SIGMA). Chemo-luminescence was measured in a liquid scintillation counter (LS-6500, Beckman) after 5 and 15 min upon addition of elicitors.
# as §1
# [4] = system: agroinfiltrated leaves of N. tabacum ecotype SR1; assay: Receptor internalization in agroinfiltrated tobacco leaves; assay type: cell-based, Nicotiana tabacum
# Protocol: E) Relative variation of fluorescence in agroinfiltrated tobacco leaves expressing EFR, FLS2, eJMC and TMC and treated with 10 μM elfl8 or 10 μM flg22 for 30 min.
# (§2) The GFP-dependent fluorescence was monitored from 2 to 4 days post infection in cells of the lower epidermis. Pieces of leaf were randomly cut from the infected area and mounted in water or supplemented with elicitors for microscopic observations. Flg22 and elfl8 were used at 10 μM while oligosaccharides were used at 100 μg/mL. Materials were analyzed using a Leica DM IRE epifluorescence microscope equipped with a digital cooled camera (DFC350FX R2; Leica). GFP fluorescence was excited with a 488-nm laser line, and emitted fluorescence was collected at 543-nm. The Leica Confocal Software and Adobe Photoshop 5.0 were used for post-acquisition image processing. All samples were imaged with the 40× or 100× oil objectives. Pictures were taken in Kahlman frame giving an average of 16 scans for the dynamics of internalization and 4 scans for the cellular localizations.
# The behaviour of TMC and eJMC upon treatment with flg22 and elfl8 was also analysed in agroinfiltrated leaves of N. tabacum ecotype SR1 and compared to that of EFR and FLS2. […] Instead, in the eJMC expressing plants fluorescence decreased within 10-30 min after stimulation with flg22, at an extent similar to that observed in Arabidopsis, i.e. by 25% and 35% after 20 min and 30 min, respectively (FIG. 3E).
# [5] = system: agroinfiltrated leaves of the Arabidopsis bak1-4 mutant; assay: Receptor internalization in agroinfiltrated leaves of the Arabidopsis bak1-4 mutant; assay type: cell-based, Arabidopsis thaliana; conditions: 10 μM flg22, 30 min
# Protocol: D) Relative variation of fluorescence in agroinfiltrated leaves of the Arabidopsis bak1-4 mutant expressing the indicated receptors and treated for 30 min with 10 μM flg22. Each value was normalised against fluorescence measured after 10 min of stimulation.
# as §2
# The authors also tested whether the presence of the LRR-RLK BAK1 (Nam & Li 2002), a protein required for flg22 and elfl8 signalling (Chinchilla et al., 2007), is also required for the internalization of eJMC induced by flg22.
# [6] = system: Agrobacterium tumefaciens GV3101; assay: Growth of Agrobacterium in N. tabacum tissues transiently expressing receptor proteins; assay type: in vivo; conditions: 24 h after inoculation, tobacco tissues expressing the receptor
# Protocol: F) Growth of Agrobacterium in N. tabacum tissues transiently expressing receptor proteins. Tobacco leaves were infiltrated with Agrobacterium expressing the indicated receptors and the number of Agrobacterium colony-forming units (c.f.u.) in the tissues was analyzed soon after infiltration (white bars) and 24 h (gray bars). EFR and eJMC were used as positive and negative controls, respectively. For each receptor, three samples were analyzed in five independent experiments. *, p<0.005.
# (A) Growth of A. tumefaciens in N. tabacum tissues transiently expressing receptor proteins. Tobacco leaves were infiltrated with Agrobacterium carrying the indicated receptor constructs and the number of Agrobacterium colony-forming units (c.f.u.) in the tissues was analyzed immediately after infiltration (white bars) and after 24 h (gray bars). EFR and eJMC were used as positive and negative controls, respectively. For each receptor, three samples were analyzed in five independent experiments. Asterisks indicate statistically significant differences against control (Col-0 for WAK1 plants and Col-0 efr for WEG and EWAK plants). (B) Lesion development in Arabidopsis wild type (Col-0) and mutant Col-0 efr plants and in transgenic plants expressing WAK1, WEG and EWAK plants inoculated with B. cinerea at 48 h post-inoculation. Values are means±s.e.m. of at least 16 lesions. The same experiment was performed in a second independent transgenic line expressing WAK1 with similar results. Asterisks indicate statistically significant differences against control (Col-0 for WAK1 plants and Col-0 efr for WEG and EWAK plants).
# Agrobacterium tumefaciens GV3101 strain infections was performed as described in Katagiri et al., (2002) and using a concentration of Agrobacterium corresponding at an OD600 of 1.0 in 10 mM MgCl2 and 600 μM acetosyringone. After 24 h of infiltration, serial dilution of Agrobacterium colonies were deposited on LB agar supplemented with gentamycin and rifampicin and grown for 2-3 days at 28° C. in the dark. At least 5 independent plants and 3 different leaves by plant, were used per experiment. Pectobacterium carotovorum subsp. carotovorum infections Pectobacterium carotovorum subsp. carotovorum (formely Erwinia carotovora; Gardan et al., 2003) (strain DMSZ 30169) was obtained from DSMZ GmbH (Germany). A liquid colture using 10 ml LB medium was prepared. After 16 h of growth at 28° C. on rotary shaker at 250 rpm, bacterial cells were harvested by centrifugation and the pellet was resuspended in 50 mM potassium phosphate buffer pH 7.0 corresponding to 5×10^7 CFU/ml.
Molecule,growth inhibition of transgenic seedlings treated with flg22 [1],development of disease symptoms / susceptibility to Pst DC3000 [2],numbers of bacteria in leaves [2],H2O2 production induced by flg22 [3],callose deposition induced by flg22 [3],"internalization after stimulation with flg22 ([4]; 10 μM flg22, 30 min)",internalization induced by flg22 in the bak1-4 mutant [5],effect on the number of living Agrobacterium cells [6],"fluorescence decrease after stimulation with flg22 ([4]; 10 μM flg22, after 20 min) [%]","fluorescence decrease after stimulation with flg22 ([4]; 10 μM flg22, after 30 min) [%]",decrease in the number of living Agrobacterium cells ([6]; p<0.005) [%],"internalization response upon stimulation with elfl8 ([4]; 10 μM elfl8, 30 min)"
FLS2 [reference compound],did not show growth inhibition,Ws-0 plants showed a faster and more severe development of disease symptoms,higher numbers of bacteria in Ws-0,induced,induced,Neither FLS2 nor TMC underwent internalization,nearly abolished,,,,,
"eJMC: chimera (Arg806FLS2-Val650EFR): LRR and eJM domains of FLS2 fused upstream of TM, iJM and kinase domains of EFR, GFP-fused",did not show growth inhibition,Ws-0 plants showed a faster and more severe development of disease symptoms; also recorded: less susceptible,higher numbers of bacteria in Ws-0,induced,induced,,not affected,no significant effect; also recorded: No significant change,25,35,,
B1,,,,,,,,no significant effect; also recorded: No significant change,,,,
B2,,,,,,,,,,,30,no response
